Assay results: patent US20080234324A1, “Piperidine Derivatives as Gcs Inhibitors” (priority 2004, published 2008)

Key:
[1] = target: T1, human recombinant GCS expressed in insect cells (Homo sapiens, UniProt Q16739); assay: Inhibition of GCS; assay type: biochemical
T1 construct: made in house; host or cells: insect cells
T1 sequence (Q16739 1-394): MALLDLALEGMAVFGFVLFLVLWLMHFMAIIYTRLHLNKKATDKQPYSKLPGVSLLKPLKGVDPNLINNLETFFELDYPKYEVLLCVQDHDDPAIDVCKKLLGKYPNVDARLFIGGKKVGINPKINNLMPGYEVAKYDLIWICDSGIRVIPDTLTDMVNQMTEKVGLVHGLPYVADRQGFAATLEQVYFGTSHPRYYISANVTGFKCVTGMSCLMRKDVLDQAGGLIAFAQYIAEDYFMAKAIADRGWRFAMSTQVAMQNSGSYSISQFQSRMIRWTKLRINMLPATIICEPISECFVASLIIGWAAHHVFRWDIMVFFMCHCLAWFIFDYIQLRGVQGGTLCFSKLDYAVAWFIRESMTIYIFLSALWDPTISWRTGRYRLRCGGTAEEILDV
Method: The assay for inhibition of GCS was performed essentially as described in Platt et al., J. Biol. Chem., (1994), 269, 27108, the enzyme source being human recombinant GCS expressed in insect cells.

[2] = target: T2, non-lysosomal-β-glucocerebrosidase (Homo sapiens, UniProt Q9HCG7); assay: Inhibition of non-lysosomal-β-glucocerebrosidase; assay type: biochemical; conditions: whole cell extracts of MCF7 as enzyme source; 5 mM 4-MU β-glucoside; pH 5.8
T2 construct: whole cell extracts of MCF7 (a human breast carcinoma cell line) was used as the source of the enzyme; endogenous in cells; host or cells: MCF7 whole cell extract
T2 sequence (Q9HCG7 1-927): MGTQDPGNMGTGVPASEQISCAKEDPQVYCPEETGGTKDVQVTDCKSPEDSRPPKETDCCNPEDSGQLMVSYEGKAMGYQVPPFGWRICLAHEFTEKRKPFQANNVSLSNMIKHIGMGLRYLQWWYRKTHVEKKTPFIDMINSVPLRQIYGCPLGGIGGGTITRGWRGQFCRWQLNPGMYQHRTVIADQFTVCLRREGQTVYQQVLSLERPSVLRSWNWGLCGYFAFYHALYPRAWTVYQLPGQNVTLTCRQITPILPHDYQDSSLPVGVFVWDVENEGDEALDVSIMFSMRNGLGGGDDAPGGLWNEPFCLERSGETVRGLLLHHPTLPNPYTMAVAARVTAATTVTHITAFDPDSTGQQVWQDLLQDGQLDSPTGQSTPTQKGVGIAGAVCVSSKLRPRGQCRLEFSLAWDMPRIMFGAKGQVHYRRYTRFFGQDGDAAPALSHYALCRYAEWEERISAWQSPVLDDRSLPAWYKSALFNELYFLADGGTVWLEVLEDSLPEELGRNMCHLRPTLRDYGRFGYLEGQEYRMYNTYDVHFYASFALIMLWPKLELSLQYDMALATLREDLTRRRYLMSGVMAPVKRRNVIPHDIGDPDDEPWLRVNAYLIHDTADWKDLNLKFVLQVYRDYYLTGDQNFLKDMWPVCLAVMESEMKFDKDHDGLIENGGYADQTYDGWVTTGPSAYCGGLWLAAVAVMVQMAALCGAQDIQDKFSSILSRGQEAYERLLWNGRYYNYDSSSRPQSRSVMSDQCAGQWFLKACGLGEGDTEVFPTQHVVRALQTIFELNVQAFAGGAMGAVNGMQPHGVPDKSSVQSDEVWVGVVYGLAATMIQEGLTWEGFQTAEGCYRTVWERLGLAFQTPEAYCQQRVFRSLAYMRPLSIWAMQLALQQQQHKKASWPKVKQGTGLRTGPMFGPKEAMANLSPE

OC[C@@H]1[C@H](O)[C@H](O)[C@@H](O)CN1Cc1ccc(OCc2ccccc2)cc1 [Example 1]
IC50 [1]: 1.3 µM
IC50 [2]: 10 µM
